Legend:
[1] = Oral bioavailability in human; format: ADME, organism-based; conditions: in vivo
[2] = In vitro rate of absorption observed as Caco-2 permeability in humans; format: ADME, cell-based; conditions: human, read-out: Papp e-6
[3] = Metabolic stability observed at 30 min after administration in human liver microsomes; format: ADME, Microsome; conditions: read-out: R

bioavailability [1] [%] | Papp [2] [×10⁻⁶ cm/s] | remaining at 0.5 h [3] [%] | Structure (SMILES)
70 | 22.8 | 96 | NC(=O)N1c2ccccc2C=Cc2ccccc21 [CARBAMAZEPINE]
98 | 20.4 | 95 | COc1ccc2c(c1)c(CC(=O)O)c(C)n2C(=O)c1ccc(Cl)cc1 [INDOMETHACIN]
18 | 2 | 100 | OC[C@@H](O)[C@@H](O)[C@H](O)[C@H](O)CO [MANNITOL]
38 | 27 | 73 | COCCc1ccc(OCC(O)CNC(C)C)cc1 (centres undefined) [METOPROLOL]
26 | 41.9 | 29 | CC(C)NCC(O)COc1cccc2ccccc12 (centres undefined) [PROPRANOLOL]
50 | 12.8 | 71 | CC(C)(C)NC[C@H](O)COc1nsnc1N1CCOCC1 [TIMOLOL]

Structure (SMILES) | bioavailability [1] [%] | Papp [2] [×10⁻⁶ cm/s] | remaining at 0.5 h [3] [%]
CC(=O)CC(c1ccccc1)c1c(O)c2ccccc2oc1=O (centres undefined) [WARFARIN] | – | 38.3 | –

From ChEMBL document CHEMBL1135799, “Graphical model for estimating oral bioavailability of drugs in humans and other species from their Caco-2 permeability and in vitro liver enzyme metabolic stability rates” (J Med Chem, 2002)
